Test results reported in patent US12240816B2, “Deuterated compounds and uses thereof” (Aldeyra Therapeutics, Inc., priority 2015, dated 2025).
Where “and” joins values, the source holds several entries; their conditions need not be identical. Identical values can stand only once. Entries after “also recorded” stand apart in the source; their conditions may differ. Like-named read-outs stand apart in the source and are kept apart here. Marks after values point to notes of the source that are not given here.

Legend:
rat hippocampal cultures = assay: Propidium iodide cell death assay, protection from hydrogen peroxide toxicity; format: cell-based
[1] = target: enzyme and uptake assay panel targets (Table 36) (Homo sapiens, UniProt P00519); assay: biochemical; format: biochemical; details: Abl kinase (h); 1.0E−05M
Chain of enzyme and uptake assay panel targets (Table 36) (Homo sapiens, UniProt P00519) (P00519 whole entry): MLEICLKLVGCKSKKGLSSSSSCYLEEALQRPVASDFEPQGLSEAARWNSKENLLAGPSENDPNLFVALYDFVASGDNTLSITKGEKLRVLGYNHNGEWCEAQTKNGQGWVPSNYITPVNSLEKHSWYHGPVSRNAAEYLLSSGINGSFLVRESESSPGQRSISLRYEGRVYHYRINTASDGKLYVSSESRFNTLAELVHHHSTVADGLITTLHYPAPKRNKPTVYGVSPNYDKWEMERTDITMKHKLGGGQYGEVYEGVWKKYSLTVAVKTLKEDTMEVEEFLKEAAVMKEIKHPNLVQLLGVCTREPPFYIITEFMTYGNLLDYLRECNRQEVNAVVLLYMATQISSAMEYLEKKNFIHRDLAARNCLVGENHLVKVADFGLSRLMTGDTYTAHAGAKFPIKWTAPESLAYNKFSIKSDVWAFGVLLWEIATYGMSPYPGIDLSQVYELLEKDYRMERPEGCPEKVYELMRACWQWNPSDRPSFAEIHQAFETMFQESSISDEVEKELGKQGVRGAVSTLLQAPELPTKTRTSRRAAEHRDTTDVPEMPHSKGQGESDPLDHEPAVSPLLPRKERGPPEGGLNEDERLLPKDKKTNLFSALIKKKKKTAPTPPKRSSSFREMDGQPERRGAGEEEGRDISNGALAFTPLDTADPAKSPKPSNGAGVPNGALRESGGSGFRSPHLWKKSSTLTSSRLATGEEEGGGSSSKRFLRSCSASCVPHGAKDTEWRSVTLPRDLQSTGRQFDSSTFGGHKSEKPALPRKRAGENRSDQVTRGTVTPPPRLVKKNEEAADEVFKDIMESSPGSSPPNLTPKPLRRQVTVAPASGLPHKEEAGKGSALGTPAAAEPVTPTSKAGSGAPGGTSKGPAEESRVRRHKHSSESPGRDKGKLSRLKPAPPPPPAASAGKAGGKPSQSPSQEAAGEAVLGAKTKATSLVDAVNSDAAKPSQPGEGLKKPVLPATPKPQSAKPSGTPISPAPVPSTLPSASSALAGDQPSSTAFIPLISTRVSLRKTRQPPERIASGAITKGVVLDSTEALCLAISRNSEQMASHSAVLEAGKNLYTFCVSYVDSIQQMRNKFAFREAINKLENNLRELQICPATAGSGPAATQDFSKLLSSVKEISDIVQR

[2] = target: enzyme and uptake assay panel targets (Table 36) (Homo sapiens, UniProt P08473); assay: biochemical; format: biochemical; details: Peptidase, Metalloproteinase, Neutral Endopeptidase; 1.0E−05M
Chain of enzyme and uptake assay panel targets (Table 36) (Homo sapiens, UniProt P08473) (P08473 whole entry): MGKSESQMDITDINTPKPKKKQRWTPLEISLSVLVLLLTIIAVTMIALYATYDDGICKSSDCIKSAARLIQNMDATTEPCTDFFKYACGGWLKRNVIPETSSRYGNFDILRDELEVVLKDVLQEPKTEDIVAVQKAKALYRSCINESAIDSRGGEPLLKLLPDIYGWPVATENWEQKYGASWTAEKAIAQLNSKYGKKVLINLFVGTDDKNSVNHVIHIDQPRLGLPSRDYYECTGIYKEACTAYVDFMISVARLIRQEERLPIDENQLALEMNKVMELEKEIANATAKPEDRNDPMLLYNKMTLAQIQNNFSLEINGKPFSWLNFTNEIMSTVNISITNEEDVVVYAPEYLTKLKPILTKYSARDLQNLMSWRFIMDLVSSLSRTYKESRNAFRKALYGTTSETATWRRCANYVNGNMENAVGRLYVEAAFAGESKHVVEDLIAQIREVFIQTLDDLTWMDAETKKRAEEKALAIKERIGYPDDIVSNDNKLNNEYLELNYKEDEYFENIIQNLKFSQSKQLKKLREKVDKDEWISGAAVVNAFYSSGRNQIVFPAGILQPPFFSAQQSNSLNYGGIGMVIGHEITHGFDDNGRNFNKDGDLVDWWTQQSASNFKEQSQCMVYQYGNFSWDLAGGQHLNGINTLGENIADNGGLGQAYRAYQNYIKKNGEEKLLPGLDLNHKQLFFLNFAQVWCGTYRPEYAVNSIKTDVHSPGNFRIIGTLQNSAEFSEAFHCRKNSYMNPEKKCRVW

[3] = target: enzyme and uptake assay panel targets (Table 36) (Homo sapiens, UniProt P09917); assay: biochemical; format: biochemical; details: 5-lipoxygenase (h); 1.0E−05M
Chain of enzyme and uptake assay panel targets (Table 36) (Homo sapiens, UniProt P09917) (P09917 whole entry): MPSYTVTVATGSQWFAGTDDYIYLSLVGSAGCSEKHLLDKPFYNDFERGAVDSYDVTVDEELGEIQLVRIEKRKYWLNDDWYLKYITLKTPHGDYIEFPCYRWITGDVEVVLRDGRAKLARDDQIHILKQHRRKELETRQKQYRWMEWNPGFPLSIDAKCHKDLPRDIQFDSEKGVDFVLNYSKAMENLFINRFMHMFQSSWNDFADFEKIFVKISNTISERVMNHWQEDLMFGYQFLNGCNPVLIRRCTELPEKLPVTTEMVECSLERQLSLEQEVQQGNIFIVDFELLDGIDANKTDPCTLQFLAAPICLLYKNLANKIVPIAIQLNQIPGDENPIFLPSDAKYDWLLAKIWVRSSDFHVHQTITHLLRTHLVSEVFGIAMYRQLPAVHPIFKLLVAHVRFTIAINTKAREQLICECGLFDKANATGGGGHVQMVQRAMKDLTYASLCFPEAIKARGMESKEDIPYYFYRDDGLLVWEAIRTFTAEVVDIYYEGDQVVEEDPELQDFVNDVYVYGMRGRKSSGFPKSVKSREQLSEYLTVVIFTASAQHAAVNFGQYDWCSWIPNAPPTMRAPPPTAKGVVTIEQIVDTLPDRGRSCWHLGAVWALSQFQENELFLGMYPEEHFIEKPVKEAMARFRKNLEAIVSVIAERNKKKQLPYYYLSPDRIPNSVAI

[4] = target: enzyme and uptake assay panel targets (Table 36) (Homo sapiens, UniProt P14780); assay: biochemical; format: biochemical; details: MMP-9 (h); 1.0E−05M; flag INTER: Test compound interferes with the assay detection method
[5] = target: enzyme and uptake assay panel targets (Table 36) (Homo sapiens, UniProt P17948); assay: biochemical; format: biochemical; details: FLT-1 kinase (h) (VEGFR1); 1.0E−05M
[6] = target: enzyme and uptake assay panel targets (Table 36) (Homo sapiens, UniProt P23219); assay: biochemical; format: biochemical; details: COX1(h); 1.0E−05M
Chain of enzyme and uptake assay panel targets (Table 36) (Homo sapiens, UniProt P23219) (P23219 24-599): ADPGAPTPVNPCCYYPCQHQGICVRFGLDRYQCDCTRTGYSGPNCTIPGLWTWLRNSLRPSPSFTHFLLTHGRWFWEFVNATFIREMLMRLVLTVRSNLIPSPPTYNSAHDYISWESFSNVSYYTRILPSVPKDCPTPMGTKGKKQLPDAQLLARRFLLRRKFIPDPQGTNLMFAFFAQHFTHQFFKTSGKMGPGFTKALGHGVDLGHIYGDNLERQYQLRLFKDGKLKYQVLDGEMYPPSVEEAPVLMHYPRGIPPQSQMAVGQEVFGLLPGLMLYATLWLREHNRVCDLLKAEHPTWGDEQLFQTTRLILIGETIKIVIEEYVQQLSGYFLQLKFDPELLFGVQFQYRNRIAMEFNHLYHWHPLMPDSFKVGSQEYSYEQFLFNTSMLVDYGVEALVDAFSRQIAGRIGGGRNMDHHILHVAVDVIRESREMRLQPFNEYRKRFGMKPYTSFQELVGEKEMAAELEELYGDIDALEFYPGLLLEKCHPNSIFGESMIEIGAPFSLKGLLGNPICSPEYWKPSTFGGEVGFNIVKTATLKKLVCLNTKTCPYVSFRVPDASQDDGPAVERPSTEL

[7] = target: enzyme and uptake assay panel targets (Table 36) (Homo sapiens, UniProt P27338); assay: biochemical; format: biochemical; details: MAO-B (h) recombinant enzyme; 1.0E−05M
[8] = target: enzyme and uptake assay panel targets (Table 36) (Homo sapiens, UniProt P28482); assay: biochemical; format: biochemical; details: ERK2 (h) (P42^mapk); 1.0E−05M
[9] = target: enzyme and uptake assay panel targets (Table 36) (Homo sapiens, UniProt Q08499); assay: biochemical; format: biochemical; details: PDE4D2 (h); 1.0E−05M
[10] = target: enzyme and uptake assay panel targets (Table 36) (Homo sapiens, UniProt Q13370); assay: biochemical; format: biochemical; details: PDE3B (h); 1.0E−05M
[11] = target: enzyme and uptake assay panel targets (Table 36) (Human immunodeficiency virus type 1 group M subtype B, UniProt P04585); assay: biochemical; format: biochemical; details: HIV-1 protease; 1.0E−05M
[12] = target: enzyme and uptake assay panel targets (Table 36) (Mus musculus, UniProt P29477); assay: biochemical; format: biochemical; details: inducible NOS; 1.0E−05M
Chain of enzyme and uptake assay panel targets (Table 36) (Mus musculus, UniProt P29477) (P29477 whole entry): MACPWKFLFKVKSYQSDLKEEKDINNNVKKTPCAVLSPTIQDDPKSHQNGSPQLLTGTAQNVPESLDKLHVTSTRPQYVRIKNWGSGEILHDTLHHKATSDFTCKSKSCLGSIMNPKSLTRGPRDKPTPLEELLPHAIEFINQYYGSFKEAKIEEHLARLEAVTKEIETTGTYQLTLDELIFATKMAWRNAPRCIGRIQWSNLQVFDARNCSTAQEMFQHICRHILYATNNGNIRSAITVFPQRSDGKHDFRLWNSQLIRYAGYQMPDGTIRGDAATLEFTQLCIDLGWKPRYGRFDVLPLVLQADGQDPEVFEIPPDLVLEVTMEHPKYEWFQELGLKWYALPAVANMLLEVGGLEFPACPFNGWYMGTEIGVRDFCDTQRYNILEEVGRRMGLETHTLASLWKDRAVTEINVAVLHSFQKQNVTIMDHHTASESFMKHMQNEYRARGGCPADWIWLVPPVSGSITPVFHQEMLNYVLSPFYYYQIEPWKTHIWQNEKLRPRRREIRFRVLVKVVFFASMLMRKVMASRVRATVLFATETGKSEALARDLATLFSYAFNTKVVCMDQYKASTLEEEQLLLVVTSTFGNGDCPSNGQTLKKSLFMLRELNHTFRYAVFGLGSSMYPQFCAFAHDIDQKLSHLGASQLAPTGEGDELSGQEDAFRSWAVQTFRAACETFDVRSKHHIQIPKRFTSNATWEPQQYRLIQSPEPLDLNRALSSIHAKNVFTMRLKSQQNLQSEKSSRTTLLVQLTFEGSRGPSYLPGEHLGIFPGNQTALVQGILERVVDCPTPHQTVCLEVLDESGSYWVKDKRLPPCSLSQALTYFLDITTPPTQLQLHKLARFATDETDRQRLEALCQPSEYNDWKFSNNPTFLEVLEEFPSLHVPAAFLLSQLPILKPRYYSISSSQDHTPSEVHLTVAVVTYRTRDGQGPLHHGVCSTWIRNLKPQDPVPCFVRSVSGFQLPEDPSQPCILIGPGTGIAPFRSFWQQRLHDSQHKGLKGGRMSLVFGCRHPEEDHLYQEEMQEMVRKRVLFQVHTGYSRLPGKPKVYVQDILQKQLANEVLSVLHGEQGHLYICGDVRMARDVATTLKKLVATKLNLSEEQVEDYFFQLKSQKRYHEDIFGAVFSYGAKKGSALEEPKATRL

acetylcholinesterase (h) = acetylcholinesterase (h) (Homo sapiens, UniProt P22303); assay: biochemical
Chain of acetylcholinesterase (h) (P22303 32-614): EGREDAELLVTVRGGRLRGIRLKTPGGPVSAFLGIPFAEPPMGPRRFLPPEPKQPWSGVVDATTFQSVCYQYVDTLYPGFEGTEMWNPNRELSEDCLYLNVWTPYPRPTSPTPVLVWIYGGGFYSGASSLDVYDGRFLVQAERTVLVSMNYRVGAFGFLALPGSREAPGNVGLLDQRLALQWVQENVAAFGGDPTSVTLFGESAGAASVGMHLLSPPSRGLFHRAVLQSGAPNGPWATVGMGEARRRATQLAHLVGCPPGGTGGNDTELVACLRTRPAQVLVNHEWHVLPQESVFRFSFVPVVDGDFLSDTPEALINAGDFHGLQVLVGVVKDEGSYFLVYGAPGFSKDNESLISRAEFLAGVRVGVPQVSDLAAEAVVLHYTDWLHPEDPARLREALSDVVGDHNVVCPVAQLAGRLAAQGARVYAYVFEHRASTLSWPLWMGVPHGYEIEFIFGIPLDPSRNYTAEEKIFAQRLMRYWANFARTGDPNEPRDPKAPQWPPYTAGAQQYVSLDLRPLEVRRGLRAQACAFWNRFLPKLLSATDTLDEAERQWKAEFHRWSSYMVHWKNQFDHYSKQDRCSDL

[13] = NS2 (CoreRx micro-milled, Captisol) 0.1 μM + 10 μM hydrogen peroxide, 5 h
[14] = NS2 (CoreRx micro-milled, Captisol) 1 μM + 10 μM hydrogen peroxide, 5 h
[15] = NS2 (CoreRx micro-milled, Captisol) 10 μM + 10 μM hydrogen peroxide, 5 h
[16] = NS2 (CoreRx micro-milled, Captisol) 100 μM + 10 μM hydrogen peroxide, 5 h
[17] = NS2 (CoreRx micro-milled, Captisol) 1 mM + 10 μM hydrogen peroxide, 5 h
[18] = NS2 (CoreRx micro-milled, DMSO) 0.1 μM + 10 μM hydrogen peroxide, 5 h
[19] = NS2 (CoreRx micro-milled, DMSO) 1 μM + 10 μM hydrogen peroxide, 5 h
[20] = NS2 (CoreRx micro-milled, DMSO) 10 μM + 10 μM hydrogen peroxide, 5 h
[21] = NS2 (CoreRx micro-milled, DMSO) 100 μM + 10 μM hydrogen peroxide, 5 h
[22] = NS2 (CoreRx micro-milled, DMSO) 1 mM + 10 μM hydrogen peroxide, 5 h
[23] = NS2 (J-Star non-milled, Captisol) 0.1 μM + 10 μM hydrogen peroxide, 5 h
[24] = NS2 (J-Star non-milled, Captisol) 1 μM + 10 μM hydrogen peroxide, 5 h
[25] = NS2 (J-Star non-milled, Captisol) 10 μM + 10 μM hydrogen peroxide, 5 h
[26] = NS2 (J-Star non-milled, Captisol) 100 μM + 10 μM hydrogen peroxide, 5 h
[27] = NS2 (J-Star non-milled, Captisol) 1 mM + 10 μM hydrogen peroxide, 5 h
[28] = NS2 (J-Star non-milled, DMSO) 0.1 μM + 10 μM hydrogen peroxide, 5 h
[29] = NS2 (J-Star non-milled, DMSO) 1 μM + 10 μM hydrogen peroxide, 5 h
[30] = NS2 (J-Star non-milled, DMSO) 10 μM + 10 μM hydrogen peroxide, 5 h
[31] = NS2 (J-Star non-milled, DMSO) 100 μM + 10 μM hydrogen peroxide, 5 h
[32] = NS2 (J-Star non-milled, DMSO) 1 mM + 10 μM hydrogen peroxide, 5 h
[33] = PI, Captisol formulation, 10 μM hydrogen peroxide, 5 h
[34] = PI, DMSO formulation, 10 μM hydrogen peroxide, 5 h

## CC(C)(O)c1nc2ccc(Cl)cc2cc1N [NS2, 2-(3-amino-6-chloroquinolin-2-yl)propan-2-ol]
Rat hippocampal cultures; [13]
  % of Control (PI): 167 ± 10%
  PI signal, Mean: 261
  PI signal, replicate wells: 246 (4×) and 323
Rat hippocampal cultures; [14]
  % of Control (PI): 171 ± 9%
  PI signal, Mean: 266
  PI signal, replicate wells: 246 (2×) and 267 and 319 and 254
Rat hippocampal cultures; [15]
  % of Control (PI): 108 ± 20%
  PI signal, Mean: 169*
  PI signal, replicate wells: 180 (3×) and 57 and 246
Rat hippocampal cultures; [16]
  % of Control (PI): 115 ± 13%
  PI signal, Mean: 180*
  PI signal, replicate wells: 246 and 137 and 144 and 180 and 192
Rat hippocampal cultures; [17]
  % of Control (PI): 130 ± 8%
  PI signal, Mean: 203*
  PI signal, replicate wells: 188 and 217 and 246 and 184 and 180
Rat hippocampal cultures; [18]
  % of Control (PI): 189 ± 9%
  PI signal, Mean: 267
  PI signal, replicate wells: 315 and 259 and 246 and 263 and 254
Rat hippocampal cultures; [19]
  % of Control (PI): 190 ± 9%
  PI signal, Mean: 268
  PI signal, replicate wells: 254 (3×) and 315 and 263
Rat hippocampal cultures; [20]
  % of Control (PI): 115 ± 11%
  PI signal, Mean: 163*
  PI signal, replicate wells: 117 and 137 and 180 and 188 and 192
Rat hippocampal cultures; [21]
  % of Control (PI): 113 ± 11%
  PI signal, Mean: 159*
  PI signal, replicate wells: 192 and 117 and 125 and 180 (2×)
Rat hippocampal cultures; [22]
  % of Control (PI): 138 ± 6%
  PI signal, Mean: 195*
  PI signal, replicate wells: 188 and 180 (2×) and 204 and 221
Rat hippocampal cultures; [23]
  % of Control (PI): 165 ± 22%
  PI signal, Mean: 232
  PI signal, replicate wells: 350 and 180 (2×) and 204 and 246
Rat hippocampal cultures; [24]
  % of Control (PI): 172 ± 24%
  PI signal, Mean: 242
  PI signal, replicate wells: 180 and 192 and 184 and 315 and 337
Rat hippocampal cultures; [25]
  % of Control (PI): 113 ± 12%
  PI signal, Mean: 160*
  PI signal, replicate wells: 180 and 188 and 117 (2×) and 196
Rat hippocampal cultures; [26]
  % of Control (PI): 99 ± 7%
  PI signal, Mean: 139*
  PI signal, replicate wells: 180 and 133 and 129 (2×) and 125
Rat hippocampal cultures; [27]
  % of Control (PI): 120 ± 6%
  PI signal, Mean: 169*
  PI signal, replicate wells: 180 (3×) and 133 and 172
Rat hippocampal cultures; [28]
  % of Control (PI): 175 ± 17%
  PI signal, Mean: 275
  PI signal, replicate wells: 350 and 259 and 246 and 315 and 204
Rat hippocampal cultures; [29]
  % of Control (PI): 143 ± 9%
  PI signal, Mean: 225
  PI signal, replicate wells: 188 and 250 and 246 (2×) and 196
Rat hippocampal cultures; [30]
  % of Control (PI): 115 ± 2%
  PI signal, Mean: 181*
  PI signal, replicate wells: 180 (3×) and 192 and 172
Rat hippocampal cultures; [31]
  % of Control (PI): 111 ± 18%
  PI signal, Mean: 175*
  PI signal, replicate wells: 246 (2×) and 133 and 125 (2×)
Rat hippocampal cultures; [32]
  % of Control (PI): 113 ± 15%
  PI signal, Mean: 177*
  PI signal, replicate wells: 117 and 250 and 180 and 204 and 133
Rat hippocampal cultures; [33]
  Full Efficacy Concentration: 10 µM
  No effect Concentration: 1 µM
Rat hippocampal cultures; PI, Captisol formulation, 10 μM hydrogen peroxide, 5 h, values with * are estimates, listed as NS2 (J-Star), read-out: EC50 ± SE
  EC50: 2.8 µM
Rat hippocampal cultures; [34]
  Full Efficacy Concentration: 10 µM
  No effect Concentration: 1 µM
Rat hippocampal cultures; PI, DMSO formulation, 10 μM hydrogen peroxide, 5 h, values with * are estimates, listed as NS2 (J-Star), read-out: EC50 ± SE
  EC50: 1.1 µM
Rat hippocampal cultures; PI, both NS2 formulations and both batches
  Full protection concentration: 10 µM
Rat hippocampal cultures; PI, both formulations and batches
  no effect concentration: 1 µM
Rat hippocampal cultures; Rattus norvegicus, 5 h, PI, DMSO formulation, 10 μM hydrogen peroxide, 5 h, values with * are estimates, read-out: EC50 ± SE
  EC50: 1.3 µM
Rat hippocampal cultures; Rattus norvegicus, PI, across formulations and batches, read-out: EC50 range
  EC50: 1.1 to 2.8 µM
Rat hippocampal cultures; Rattus norvegicus, PI, best available estimate, read-out: EC50, mean value for all PI data
  EC50: 2 ± 1 µM
Dog hepatocytes; NS2, 120 min, dog hepatocytes
  metabolite profile: metabolized to M1, M2, M5, and M6, with some unchanged NS2 remaining; also recorded: two different mono-oxidation products (M1 and M2) and two different glutathione (GSH) conjugates (M5 and M6)
Dog hepatocytes; dog, 120 min, 3 μM
  Peak Areas Dog: 4.79E+07

## [2H]C([2H])([2H])C(O)(c1nc2ccc(Cl)cc2cc1N)C([2H])([2H])[2H] [Compound I-1]
[1]
  % inhibition of Control Values 1st: −4.8%
  % inhibition of Control Values 2nd: −11.6%
  % inhibition of Control Values Mean: −8.2%
[2]
  % inhibition of Control Values 1st: 0.3%
  % inhibition of Control Values 2nd: 3.0%
  % inhibition of Control Values Mean: 1.7%
[3]
  % inhibition of Control Values 1st: 23.5%
  % inhibition of Control Values 2nd: 24.8%
  % inhibition of Control Values Mean: 24.2%
[4]
  % inhibition of Control Values 1st: 4.5%
  % inhibition of Control Values 2nd: 4.4%
  % inhibition of Control Values Mean: 4.4%
[5]
  % inhibition of Control Values 1st: −15.5%
  % inhibition of Control Values 2nd: −18.8%
  % inhibition of Control Values Mean: −17.2%
[6]
  % inhibition of Control Values 1st: 20.1%
  % inhibition of Control Values 2nd: −2.6%
  % inhibition of Control Values Mean: 8.8%
[7]
  % inhibition of Control Values 1st: −3.1%
  % inhibition of Control Values 2nd: −3.7%
  % inhibition of Control Values Mean: −3.4%
[8]
  % inhibition of Control Values 1st: −6.3%
  % inhibition of Control Values 2nd: −1.3%
  % inhibition of Control Values Mean: −3.8%
[9]
  % inhibition of Control Values 1st: 15.9%
  % inhibition of Control Values 2nd: 16.9%
  % inhibition of Control Values Mean: 16.4%
[10]
  % inhibition of Control Values 1st: 0.9%
  % inhibition of Control Values 2nd: −4.5%
  % inhibition of Control Values Mean: −1.8%
[11]
  % inhibition of Control Values 1st: 16.6%
  % inhibition of Control Values 2nd: 4.8%
  % inhibition of Control Values Mean: 10.7%
[12]
  % inhibition of Control Values 1st: 2.8%
  % inhibition of Control Values 2nd: −2.0%
  % inhibition of Control Values Mean: 0.4%
Acetylcholinesterase (h); read-out: % inhibition of Control Values 1st
  inhibition at 10 µM: 45.8%
Acetylcholinesterase (h); read-out: % inhibition of Control Values 2nd
  inhibition at 10 µM: 60.1%
Acetylcholinesterase (h); read-out: % inhibition of Control Values Mean
  inhibition at 10 µM: 52.9%
